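A five-concentration, 48-hour dose response in 96-well plates underlies each endpoint, interpolated linearly between surrounding concentrations. GI50: concentration for 50% inhibition of growth. TGI: total growth inhibition.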
Tests used:
Assay in all cases: NCI-60 cell line screen, 48 h
[1] = system: 786-0 renal
[2] = system: SK-OV-3 ovarian
[3] = system: CAKI-1 renal
[4] = system: KM20L2 colon
[5] = system: SN12C renal
[6] = system: M19-MEL melanoma
[7] = system: ACHN renal
[8] = system: DMS 273 small cell lung
[9] = system: DLD-1 colon
[10] = system: T-47D breast
[11] = system: DU-145 prostate
[12] = system: BT-549 breast

SMILES	TGI [1] [µM]	TGI [2] [µM]	TGI [3] [µM]	TGI [4] [µM]	TGI [5] [µM]	TGI [6] [µM]	TGI [7] [µM]	TGI [8] [µM]	TGI [9] [µM]	GI50 [1] [µM]	GI50 [2] [µM]	GI50 [10] [µM]	TGI [10] [µM]	GI50 [3] [µM]	GI50 [11] [µM]	TGI [11] [µM]	GI50 [5] [µM]	GI50 [7] [µM]	GI50 [12] [µM]	TGI [12] [µM]
CCN(CC)C(=O)CNC(=O)OC(C)(C)C	> 100	> 100	> 100	> 100	> 100	> 100	> 100	> 100	> 100											
COc1cc([C@@H]2c3cc4c(cc3[C@@H](NCc3ccc(C#N)cc3)C3COC(=O)[C@@H]32)OCO4)cc(OC)c1O (some centres undefined)	2.32	3.9	8.83	3.99	3.02	19.5	1.55	2.49	5.33											
Cc1[nH]c2ccccc2c1C1CC(=O)NC1=O (centres undefined)	> 100	> 100	> 100	> 100		> 100	> 100	> 100	> 100											
CCC(O)(c1ccc(OC)cc1)C(c1ccc(OCc2ccccc2)cc1)c1ccc(OCc2ccccc2)cc1 (centres undefined)	> 100	> 100	> 100	> 100	> 100	> 100	> 100	> 100	> 100											
CC(C(=O)c1ccccc1)C1(O)C(=O)Nc2ccccc21 (centres undefined)	> 100	> 100	> 100	> 100	> 100	> 100	> 100	> 100	> 100											
C/C(=N\NS(=O)(=O)c1ccc(C)cc1)c1c(O)cc(C)oc1=O	> 100	> 100	> 100	> 100	> 100	> 100	> 100		> 100											
C[C@]12CC(C#N)C(=O)C(O)=C1CC[C@@H]1C2CC[C@@]2(C)C1CC[C@@H]2O (some centres undefined)	> 100	> 100		> 100	> 100		> 100	> 100	> 100											
NC1=NC(c2ccccc2)CC(c2cc(Cl)cc(Br)c2O)=N1 (centres undefined)	31.5	42.7	26.8	30.8	30.3	28.2	31.5	23.2	25.8											
O=C(N/C(=C\c1ccc([N+](=O)[O-])cc1)c1nc2ccc(Cl)cc2[nH]1)c1ccccc1	53	94.6	59.6	50.9	41.9	> 100	66.8		31.3											
CC1Cc2c(N)nc(N3CCOCC3)nc2NC1=O (centres undefined)	> 100	> 100		> 100	> 100	> 100	> 100	> 100	> 100											
CC(C)c1cccc(C(C)C)c1N=C(N)C#N	> 61.3	> 100	> 100	> 100	> 100	> 100	> 100	> 56.9	> 65.6											
C[C@@H](NC1CCC[C@@H]1O)c1ccccc1 (some centres undefined)	> 100	> 100	> 100	> 100	> 100	> 100	> 100	> 100	> 100											
CCCC1C(=O)C(CC)Cc2c(OC)ccc(OC)c21 (centres undefined)	> 100	> 100	> 100		> 100	> 100	> 100	> 100	> 100											
C[Si](C)(C)/C=C\CCCN1C(=O)CCC1=O	> 100	> 100		> 100	> 100	> 100	> 100													
CC(=O)NC1C(OCc2ccccc2)OC(COC(=O)CCCCCNc2ccc([N+](=O)[O-])c3[nH]c4ccc(O)cc4c(=O)c23)C(O)C1OC(C)C(=O)N[C@@H](C)C(=O)N[C@H](CCC(=O)OCc1ccccc1)C(N)=O (some centres undefined)	14.3	10.7	4.21	0.893	18.7	33.3	34.5	6.03	10											
O=S1c2ccccc2N=C(c2ccc(Cl)cc2)CC1c1cccs1 (centres undefined)	28.2	85.4	> 100	59.6	38	39	> 100	28.2	24.9											
CC1=C(/C=C/C2=CC(=C\C(=O)O)/CC(C3=C(C)CCCC3(C)C)C2)C(C)(C)CCC1 (centres undefined)	28.4	27.7	29.5		32.3	30.6	22.2	27.7	24.5											
COc1cc2ccnc3c2c(c1OC)CC1CC(O)C(OC)CC31 (centres undefined)	> 100	> 100		> 100	> 100	> 100	> 100	> 100	> 100											
O=C1NC(=O)C(=O)C(c2nc3ccccc3s2)C1=O	> 100	> 100	> 100	> 100	> 100	> 100	> 100	> 100	> 100											
COc1c(B(O)O)cccc1-c1nc2c(F)cc3[nH]ncc3c2c2c1CCCC2	17.6	36.1	3.26		45		42.8			1.33	1.5	2.56	22.2	0.333	2.18	26.9	1.24	0.845	0.116	3.02
CN(C1=NS(=O)(=O)N=C(N(C)c2ccccc2)O1)c1ccccc1	72.7	78.8	45.4		41.2		31.7						45.5			61.7				39
O=C1CCC2=C3C4CCCCC4C(=O)C4CCCC(OC2C1)C34 (centres undefined)	> 29.8	> 100	5.47		> 24.7					2.51	5.18	3.58	> 100	1.34	0.357	2.1	0.849	0.382	1.4	6.03
NC(=O)c1cc(Cl)ccc1NC(=O)c1ccccc1-c1ccccc1	17.9	11.3	64.3		> 100		87.6			0.479	0.677	1.74	64.4	0.735	0.597	16	1.78	0.799	0.572	52.7

Source: PubChem BioAssay (NCI)
